# Entries after “also recorded” stand apart in the source; their conditions may differ. Where two headings read alike, the source gives them in different places.
# Columns and labels:
# [1] = cited from earlier work
# [2] = drug self-administration paradigm; conditions: rats
# [3] = system: [3H]DA-preloaded rat striatal slices (nicotinic receptors); conditions: cited from earlier work
# [4] = system: [3H]DA-preloaded rat striatal slices (nicotinic receptors); test: [3H]overflow (DA release) from [3H]DA-preloaded rat striatal slices; assay type: cell-based
# Method: In vitro pharmacological effects of NIC are generally investigated using either striatal slices or synaptosome preparations preloaded with [^3 H] DA. NIC-evoked [^3 H]overflow is obtained routinely in the presence of nomifensine (10 μM; a DA uptake inhibitor) and for pargyline (10 μM, a monoamine oxidase inhibitor) in the superfusion buffer, such that [^3 H]overflow represents primarily [^3 H]DA rather than [H]DA-metabolites (Zumstein et al., 1981, Hoffmann and Cubeddu, 1982, Dwoskin and Zahniser, 1986, Rapier et al., 1988), and for this reason, [^3 H]overflow also will be referred to as [^3 H] DA release in the proposal.
# The present studies use striatal slices superfused with various concentrations of NIC or norNIC for prolonged periods.
# FIG. 4. […] Insets illustrate the response to the low concentration range. […] NIC exposure indicated by the bar under time course. Note: 1-min sample collection period. […] N=4 rats.
# Rat striatal slices were depolarized with 10 μM NIC, 20 mM K+or 1 Hz, 60 pulses or 3 Hz, 180 pulses electrical field stimulation. […] N=4.
# MEC or DHβE was included in the superfusion buffer for 60 min prior to the addition of NIC, and superfusion continued for 60 min in the presence of NIC+antagonist.
# [5] = NIC and metabolites in rat brain after s.c. injection of radiolabelled NIC; assay type: in vivo
# From the text: NIC metabolism studies involving HPLRC analysis invariably utilize NIC with a radiolabel (i.e., [^3 H], [^14 C] or [^11 C]) incorporated in the methyl group. However N-demethylated NIC metabolites (norNIC and norCOT) cannot be detected after injection of such radionuclides, since the label is lost in the formation of these metabolites. NIC and four NIC metabolites have recently been detected in rat brain 4 hr after s.c. injection of [2'-^14 C]NIC (FIG. 3, Table I). Three of these metabolites have been identified as COT, norNIC and norCOT. A fourth minor metabolite (Peak B) has not been completely identified but appears to be an N-demethylated metabolite, since it is not detected in the [^3 H-N-methyl]NIC studies.
# COT, and therefore, is unlikely to originate from COT N-demethylation. 3-HydroxyCOT and its glucuronide conjugate were not detected as metabolites of either NIC or COT in brain, even though these are major biotransformation products in the periphery (Crooks, 1993).
# It appears that NIC metabolites which accumulate with a time course that correlates with the development of behavioral sensitization to NIC have a role in eliciting sensitization to NIC. The inventors have detected NIC, COT, norNIC and norCOT in brain 4 hr following acute s.c. injection of (±)[2'-^14 C]NIC. S(-) [^3 H] -N-methyl]NIC is unsuitable for studying brain metabolism of NIC, since nor-metabolites (i.e., demethylated metabolites) cannot be detected due to [^3 H]-loss during metabolism (Crooks et al., 1995b, AP 7). Thus, commercially available (±)[2'-^14 C]NIC was used to determine NIC metabolites present in brain. This form of radiolabelled NIC provides a metabolically stable [^14 C]-label which allows measurement of all potential NIC metabolites.
# A second "metabolite" (Peak A, FIG. 2) was also detected at each time point and most likely results from a combination of metabolic cleavage of the N-methyl group and dissociated-[^3 H], i e, Peak A represents an oxidized 1-carbon unit and indicates the extent of NIC N-demethylation. Note, in our subsequent studies with [2'-^14 C]NIC, Peak A was not observed, which is consistent with our interpretation of the results (Table 1).
compound,measurement,setting,value
"c1cncc([C@@H]2CCCN2)c1 [S(-) nornicotine, S-(-) nornicotine]",potency relative to nicotine,[1]; behavioral sensitization,less potent than nicotine
same,self-administration / substitution for amphetamine,[2]; listed as S-(-)-nornicotine,self-administered; also recorded: substitutes for amphetamine self administration
same,self-administration / substitution for amphetamine,[2]; listed as norNIC,reinforcing
same,antagonist sensitivity of effects,"[3]; Teng et al., 1996",inhibited by mecamylamine and DHβE
same,EC50,"[4]; Rattus norvegicus, read-out: EC50 for norNIC stimulated, DHβE-sensitive [3H]overflow",880 ± 310 nM
same,evoked [3H]overflow,[4]; concentration-dependent,increase in [^3 H]overflow; also recorded: stereoselective and concentration dependent increase
same,plateau in response,"[4]; concentration-response curve, 60-min exposure",not observed at concentrations up to 3 mM; also recorded: fail to produce a plateau in response
same,release of dopamine from presynaptic terminals,[4]; neuronal tissue,stereoselective and receptor-mediated
same,presence as metabolite in brain,"[5]; rat brain, after s.c. radiolabelled NIC",present in significant amounts in brain
CN1CCC[C@H]1c1cccnc1 [S(-) nicotine],cross-sensitization between nicotine and amphetamine,[1],has not been observed
same,self-administration / substitution for amphetamine,[2],responding was established and maintained
same,plateau concentration of concentration-response curve,"[3]; Izenwasser et al. (1991), 10-min exposure",0.1 µM
same,EC50,"[3]; rat striatal slices, Sacaan et al. (1995), read-out: EC50 for NIC-evoked [3H]overflow",3700 nM
same,"absolute [3H]overflow vs 20 mM K+ or 1 Hz, 60 pulses stimulation",[4],not significantly different
same,evoked [3H]overflow,[4],increase in [^3 H]overflow; also recorded: stereoselective and concentration dependent increase
same,plateau in [3H]overflow,[4],30 mM
same,plateau in response,[4],fail to produce a plateau in response
same,time of peak effect,[4],10 to 15 min
same,time of return of release to basal levels,[4],30 to 60 min
same,level in CNS at 4 hrs post-NIC-injection,[5]; 4 hrs,only low levels were detected
same,Tmax,"[5]; in vivo, rat brain, read-out: time of maximum uptake in brain",30 to 60 min

# Source: US5776957A, “Nornicotine enantiomers for use as a treatment for dopamine related conditions and disease states” (The University of Kentucky Research Foundation, priority 1996, dated 1998)
